# Measured values as given in patent US8859508B2, “Application of 5-methyl-1,3-benzenediol or derivatives thereof in the preparation of medicines and functional foods for treatment or prevention of depression” (Kunming Institute of Botany, Chinese Academy of Sciences, priority 2007, dated 2014).
# Columns and labels:
# [1] = test system: CMS model mice; assay: TST in chronic unpredictable mild stress (CMS) model mice; format: in vivo, mouse; conditions: for Immobility time (s) (mean ± SEM): oral once a day for 7 days
# Experimental: Kunming mice (Certificate Number: A4CXK(Chuan)2003-16) from the Institute of Experimental Animals, People's Hospital of Sichuan Province, were used. They were 3-4 weeks old at the beginning of experiments and weighed 25-30 g. ORG was prepared as described in Example 1. Animals were divided into experiment groups with different doses, a vehicle control group, and an imipramine group (Sigma, Batch No. 106k1588) as positive control.
# CMS model: The chronic mild stresses that Kunming mice were subjected to were reversal of circadian rhythm, continuous light, cold, damp bedding, tilt cages, food and water restriction, and restraint. […] The stress period lasted for 8 weeks. In the last week, ORG was administered orally once a day for 7 consecutive days. The behavioral test was carried out 30 min after the last administration. The parameter tested was immobility time in the FST and TST in the CMS model mice. The methods of FST and TST and data analysis were as described above.
# [2] = test system: LTP in the CA1 area of hippocampus; assay: Long-term potentiation (LTP) recording in hippocampal slices of footshock-stressed rats; format: cell-based, rat
# Experimental: Rats weighing 250-300 g, from the Institute of Experimental Animals, People's Hospital of Sichuan Province, were used. ORG was prepared as described in Example 1. Fluoxetine was from Wuhan Yuancheng Technology Co. (Wuhan, China; Batch No: 1004-0801002).
# Method of long-term potentiation (LTP) recording in hippocampus: Excitatory postsynaptic potentials (EPSPs) in the hippocampus were recorded to determine the anti-stress effect of ORG. Stress impairs LTP in the CAl area of hippocampus, and this can be rescued by anti-stress drugs. Rats were stressed by footshock as follows: 1 mA, 2 s, 5 times at intervals of 2 min. Hippocampal slices were prepared, incubated for 1 h at 34-36° C., and then kept at room temperature. ORG was applied in the bath solution. EPSPs mediated by NMDA and AMPA receptors in the CA1 region were recorded until the baseline was stable for 20 min. Then high frequency stimulation (HFS, 100 Hz, 100 pulses, 20 s interval) was used to induce LTP. The EPSPs were recorded for 1 h after HFS.
# Data Analysis: Data are expressed as mean±SEM and LTP is expressed as the percentage of the average amplitude of the last 10 min relative to the baseline. One-way ANOVA was used followed by the LSD test with SPSS 11 software. The significance level was set at P<0.05.
# [3] = test system: Kunming mice; assay: Tail suspension test (TST) in mice
compound,measurement,setting,value
"Cc1cc(O)cc(OC2OC(CO)C(O)C(O)C2O)c1 [ORG, orcinol-1-O-β-D-glucopyranoside]",therapeutic index (TI) = TD50÷ED50,[1]; CMS mice,> 415
same,Immobility time (s) (mean ± SEM),"[1]; CMS mice, 5 mg/kg",146.30 ± 11.66 s
same,Immobility time (s) (mean ± SEM),"[1]; CMS mice, 10 mg/kg",145.31 ± 12.41 s
same,Immobility time (s) (mean ± SEM),"[1]; CMS mice, 20 mg/kg",140.69 ± 14.14 s
same,Immobility time (s) (mean ± SEM),"[1]; CMS mice, test 30 min after last dose, 1.25 mg/kg",171.20 ± 13.02 s
same,best dose for the antidepressant effect,"[1]; CMS model mice, ORG oral",20 mg/kg
same,ED50,"[1]; Mus musculus, CMS model mice, ORG oral",~4.22 mg/kg
same,"LTP, Average of last 10 min (mean ± SEM)","[2]; control (non-stressed) slices incubated with 5 μM, percentage of average EPSP amplitude of last 10 min relative to baseline",122.93 ± 3.75
same,"LTP, Average of last 10 min (mean ± SEM)","[2]; footshock (FS) stressed rat slices incubated with 50 nM, percentage relative to baseline",128.99 ± 7.30
same,"LTP, Average of last 10 min (mean ± SEM)","[2]; footshock (FS) stressed rat slices incubated with 5 μM, percentage relative to baseline",189.56 ± 23.6
same,ED50,[3]; Mus musculus,~0.73 mg/kg
same,dose of the best efficacy,"[3]; TST mice, ORG i.g. 24 h and 5 h before test",12 mg/kg
same,Immobility time (s) (mean ± SEM),"[3]; TST mice, i.g. 24 h and 5 h before test, 0.1875 mg/kg",161.70 ± 6.89 s
same,Immobility time (s) (mean ± SEM),"[3]; TST mice, i.g., 0.375 mg/kg",155.68 ± 6.77 s
same,Immobility time (s) (mean ± SEM),"[3]; TST mice, i.g., 0.5 mg/kg",125.30 ± 6.93 s
same,Immobility time (s) (mean ± SEM),"[3]; TST mice, i.g., 0.75 mg/kg",117.33 ± 6.56 s
same,Immobility time (s) (mean ± SEM),"[3]; TST mice, i.g., 1.5 mg/kg",109.27 ± 6.81 s
same,Immobility time (s) (mean ± SEM),"[3]; TST mice, i.g., 3 mg/kg",98.07 ± 5.95 s
same,Immobility time (s) (mean ± SEM),"[3]; TST mice, i.g., 6 mg/kg",89.73 ± 5.02 s
same,Immobility time (s) (mean ± SEM),"[3]; TST mice, i.g., 12 mg/kg",77.67 ± 5.33 s
same,Immobility time (s) (mean ± SEM),"[3]; TST mice, i.g., 24 mg/kg",91.03 ± 7.44 s
same,Immobility time (s) (mean ± SEM),"[3]; TST mice, i.g., 48 mg/kg",100.20 ± 10.46 s
same,Immobility time (s) (mean ± SEM),"[3]; TST mice, i.g., 96 mg/kg",107.68 ± 8.85 s
same,therapeutic index (TI) = TD50÷ED50,"[3]; mice, TST",> 2397
